Test results taken from paper PMC4515243, “Phase 1 pharmacokinetic study of the oral pan-AKT inhibitor MK-2206 in Japanese patients with advanced solid tumors” (Cancer Chemotherapy and Pharmacology, 2015).

Test system: Japanese patients with advanced solid tumors
Assay: phase 1 safety and tolerability (DLT, adverse events) in Japanese patients;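 note: toxicities graded by NCI CTCAE version 3.0, treatment given until disease progression or unacceptable toxicity, three to nine patients enrolled per dose level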
[1] = 60 mg QOD, grade 3 mucosal inflammation

Excerpt: Treatment was continued until disease progression or the occurrence of an unacceptable toxicity.
A minimum of three and up to nine patients were enrolled at each dose level based on the toxicity probability intervals [9].
Adverse events were graded using the National Cancer Institute Common Terminology Criteria for Adverse Events, version 3.0.

SMILES: NC1(c2ccc(-c3nc4ccn5c(=O)[nH]nc5c4cc3-c3ccccc3)cc2)CCC1 [MK-2206]
- Lymphopenia, drug-related adverse event, patients (60 mg QOD (n = 9), All grades): 5
- Nausea, drug-related adverse event, patients (60 mg QOD (n = 9), All grades): 1
- Neutropenia, drug-related adverse event, patients (60 mg QOD (n = 9), All grades): 2
- Palmar-plantar erythrodysaesthesia syndrome, drug-related adverse event, patients (60 mg QOD (n = 9), All grades): 1
- Pruritus, drug-related adverse event, patients (60 mg QOD (n = 9), All grades): 4
- Pyrexia, drug-related adverse event, patients (60 mg QOD (n = 9), All grades): 7
- Rash, drug-related adverse event, patients (60 mg QOD (n = 9), All grades): 9
- Stomatitis, drug-related adverse event, patients (60 mg QOD (n = 9), All grades): 6
- Vomiting, drug-related adverse event, patients (60 mg QOD (n = 9), All grades): 0
- ALT increased, drug-related adverse event, patients (60 mg QOD (n = 9), Grades 3–5): 0
- Blood creatinine increased, drug-related adverse event, patients (60 mg QOD (n = 9), Grades 3–5): 0
- Decreased appetite, drug-related adverse event, patients (60 mg QOD (n = 9), Grades 3–5): 0
- Diarrhea, drug-related adverse event, patients (60 mg QOD (n = 9), Grades 3–5): 0
- Dry skin, drug-related adverse event, patients (60 mg QOD (n = 9), Grades 3–5): 0
- Eosinophil count increased, drug-related adverse event, patients (60 mg QOD (n = 9), Grades 3–5): 0
- Eosinophilia, drug-related adverse event, patients (60 mg QOD (n = 9), Grades 3–5): 0
- Erythema multiforme, drug-related adverse event, patients (60 mg QOD (n = 9), Grades 3–5): 0
- Fatigue, drug-related adverse event, patients (60 mg QOD (n = 9), Grades 3–5): 0
- HbA1C increased, drug-related adverse event, patients (60 mg QOD (n = 9), Grades 3–5): 0
- Hyperglycemia, drug-related adverse event, patients (60 mg QOD (n = 9), Grades 3–5): 0
- Hypernatremia, drug-related adverse event, patients (60 mg QOD (n = 9), Grades 3–5): 0
- Hypoalbuminemia, drug-related adverse event, patients (60 mg QOD (n = 9), Grades 3–5): 0
- Hypokalemia, drug-related adverse event, patients (60 mg QOD (n = 9), Grades 3–5): 0
- Insulin c-peptide increased, drug-related adverse event, patients (60 mg QOD (n = 9), Grades 3–5): 0
- Leukopenia, drug-related adverse event, patients (60 mg QOD (n = 9), Grades 3–5): 0
- Localized edema, drug-related adverse event, patients (60 mg QOD (n = 9), Grades 3–5): 0
- Lymphopenia, drug-related adverse event, patients (60 mg QOD (n = 9), Grades 3–5): 2
- Nausea, drug-related adverse event, patients (60 mg QOD (n = 9), Grades 3–5): 0
- Neutropenia, drug-related adverse event, patients (60 mg QOD (n = 9), Grades 3–5): 0
- Palmar-plantar erythrodysaesthesia syndrome, drug-related adverse event, patients (60 mg QOD (n = 9), Grades 3–5): 0
- Pruritus, drug-related adverse event, patients (60 mg QOD (n = 9), Grades 3–5): 0
- Pyrexia, drug-related adverse event, patients (60 mg QOD (n = 9), Grades 3–5): 0
- Rash, drug-related adverse event, patients (60 mg QOD (n = 9), Grades 3–5): 1
- Stomatitis, drug-related adverse event, patients (60 mg QOD (n = 9), Grades 3–5): 0
- Vomiting, drug-related adverse event, patients (60 mg QOD (n = 9), Grades 3–5): 0
- patients with DLT during Cycle 1 [1]: One of the nine
- time until the onset of the DLT after the start of treatment [1]: 28 days
- DLTs during Cycle 1 (135 mg QW): no DLTs
- ALT increased, drug-related adverse event, patients (135 mg QW (n = 3), All grades): 0
- Blood creatinine increased, drug-related adverse event, patients (135 mg QW (n = 3), All grades): 0
- Decreased appetite, drug-related adverse event, patients (135 mg QW (n = 3), All grades): 1
- Diarrhea, drug-related adverse event, patients (135 mg QW (n = 3), All grades): 1
- Dry skin, drug-related adverse event, patients (135 mg QW (n = 3), All grades): 1
- Eosinophil count increased, drug-related adverse event, patients (135 mg QW (n = 3), All grades): 2
- Eosinophilia, drug-related adverse event, patients (135 mg QW (n = 3), All grades): 1
- Erythema multiforme, drug-related adverse event, patients (135 mg QW (n = 3), All grades): 0
- Fatigue, drug-related adverse event, patients (135 mg QW (n = 3), All grades): 1
- HbA1C increased, drug-related adverse event, patients (135 mg QW (n = 3), All grades): 1
- Hyperglycemia, drug-related adverse event, patients (135 mg QW (n = 3), All grades): 2
- Hypernatremia, drug-related adverse event, patients (135 mg QW (n = 3), All grades): 0
- Hypoalbuminemia, drug-related adverse event, patients (135 mg QW (n = 3), All grades): 0
- Hypokalemia, drug-related adverse event, patients (135 mg QW (n = 3), All grades): 1
- Insulin c-peptide increased, drug-related adverse event, patients (135 mg QW (n = 3), All grades): 2
- Leukopenia, drug-related adverse event, patients (135 mg QW (n = 3), All grades): 0
- Localized edema, drug-related adverse event, patients (135 mg QW (n = 3), All grades): 0
- Lymphopenia, drug-related adverse event, patients (135 mg QW (n = 3), All grades): 0
- Nausea, drug-related adverse event, patients (135 mg QW (n = 3), All grades): 1
- Neutropenia, drug-related adverse event, patients (135 mg QW (n = 3), All grades): 1
- Palmar-plantar erythrodysaesthesia syndrome, drug-related adverse event, patients (135 mg QW (n = 3), All grades): 0
- Pruritus, drug-related adverse event, patients (135 mg QW (n = 3), All grades): 0
- Pyrexia, drug-related adverse event, patients (135 mg QW (n = 3), All grades): 0
- Rash, drug-related adverse event, patients (135 mg QW (n = 3), All grades): 2
- Stomatitis, drug-related adverse event, patients (135 mg QW (n = 3), All grades): 0
- Vomiting, drug-related adverse event, patients (135 mg QW (n = 3), All grades): 1
- ALT increased, drug-related adverse event, patients (135 mg QW (n = 3), Grades 3–5): 0
- Blood creatinine increased, drug-related adverse event, patients (135 mg QW (n = 3), Grades 3–5): 0
- Decreased appetite, drug-related adverse event, patients (135 mg QW (n = 3), Grades 3–5): 0
- Diarrhea, drug-related adverse event, patients (135 mg QW (n = 3), Grades 3–5): 0
- Dry skin, drug-related adverse event, patients (135 mg QW (n = 3), Grades 3–5): 0
- Eosinophil count increased, drug-related adverse event, patients (135 mg QW (n = 3), Grades 3–5): 0
